Where two headings read alike, the source gives them in different places.
Experiments:
Format in all cases: biochemical
[1] = molecular target: T1, recombinant human PREP (rhPREP) (Homo sapiens, UniProt P48147); experiment: PREP enzymatic activity assay; conditions: Z-Gly-Pro-AMC substrate
T1 sequence (P48147 1-710): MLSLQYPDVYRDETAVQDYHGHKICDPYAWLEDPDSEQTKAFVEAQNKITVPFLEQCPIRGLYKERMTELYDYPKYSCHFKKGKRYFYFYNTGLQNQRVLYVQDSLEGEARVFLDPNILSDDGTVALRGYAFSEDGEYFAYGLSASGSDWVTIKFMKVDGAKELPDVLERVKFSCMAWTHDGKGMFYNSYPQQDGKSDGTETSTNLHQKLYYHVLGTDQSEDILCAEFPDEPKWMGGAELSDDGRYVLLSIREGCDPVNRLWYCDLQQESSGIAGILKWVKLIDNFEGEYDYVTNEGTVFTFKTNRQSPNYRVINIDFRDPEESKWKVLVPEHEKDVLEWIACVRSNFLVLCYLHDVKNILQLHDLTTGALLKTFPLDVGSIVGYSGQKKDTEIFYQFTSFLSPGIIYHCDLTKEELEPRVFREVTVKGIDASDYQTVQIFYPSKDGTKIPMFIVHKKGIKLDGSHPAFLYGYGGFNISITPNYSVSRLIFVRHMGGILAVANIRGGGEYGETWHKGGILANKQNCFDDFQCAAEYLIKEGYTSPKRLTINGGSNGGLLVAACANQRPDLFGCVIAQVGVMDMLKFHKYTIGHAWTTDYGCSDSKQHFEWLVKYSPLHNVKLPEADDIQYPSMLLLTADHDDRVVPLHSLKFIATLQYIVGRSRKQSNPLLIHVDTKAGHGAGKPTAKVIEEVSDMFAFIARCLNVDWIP
Method: (§1) 7-Amino-4-Methylcoumarin (AMC) release was detected by measuring fluorescence at Ex/Em 380/460 nm using a Multifunction Microplate Reader (Synergy 4, Biotek). All measurements were carried out in triplicate.

[2] = molecular target: T2, recombinant human DPP9 (rhDPP9) (Homo sapiens, UniProt Q86TI2); experiment: DPP9 enzymatic activity assay; conditions: H-Gly-Pro-AMC substrate
T2 construct: purchased R&S system (so in the source)
Method: as §1

[3] = molecular target: T3, recombinant human FAPα (rhFAPα) (Homo sapiens, UniProt Q12884); experiment: FAPα enzymatic exopeptidase (dipeptidase) activity assay; conditions: for inhibition at 1 µM: 1 μM test compound, Z-Gly-Pro-AMC substrate, read-out: rhFAPα (% exo inh @ 1 μM); for IC50: exopeptidase, read-out: rhFAPα (exo IC50)
T3 construct: purchased R&S system (so in the source)
T3 sequence (Q12884 1-760): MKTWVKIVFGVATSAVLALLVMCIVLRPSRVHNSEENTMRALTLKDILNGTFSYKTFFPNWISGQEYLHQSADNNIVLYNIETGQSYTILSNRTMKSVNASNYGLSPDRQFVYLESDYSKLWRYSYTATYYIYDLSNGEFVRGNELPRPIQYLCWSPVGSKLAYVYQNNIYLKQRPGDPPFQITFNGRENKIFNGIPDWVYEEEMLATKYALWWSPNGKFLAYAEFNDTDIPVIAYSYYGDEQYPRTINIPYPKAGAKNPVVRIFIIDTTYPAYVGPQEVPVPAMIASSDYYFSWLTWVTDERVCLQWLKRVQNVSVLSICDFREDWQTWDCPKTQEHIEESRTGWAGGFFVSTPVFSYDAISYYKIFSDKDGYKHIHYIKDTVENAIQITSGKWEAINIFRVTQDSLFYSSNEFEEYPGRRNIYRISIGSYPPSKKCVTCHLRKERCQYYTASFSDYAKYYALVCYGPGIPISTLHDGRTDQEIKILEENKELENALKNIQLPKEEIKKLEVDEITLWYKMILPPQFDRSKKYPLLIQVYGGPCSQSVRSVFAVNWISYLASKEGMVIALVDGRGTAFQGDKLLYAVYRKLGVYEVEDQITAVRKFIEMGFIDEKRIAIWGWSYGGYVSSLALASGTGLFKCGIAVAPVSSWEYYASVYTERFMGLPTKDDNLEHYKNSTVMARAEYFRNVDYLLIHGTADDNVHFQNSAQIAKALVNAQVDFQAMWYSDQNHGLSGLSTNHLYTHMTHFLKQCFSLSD

[4] = molecular target: T4, recombinant human DPPIV (rhDPPIV) (Homo sapiens, UniProt P27487); experiment: DPPIV enzymatic activity assay; conditions: H-Gly-Pro-pNA substrate
T4 construct: purchased R&S system (so in the source)
T4 sequence (P27487 whole entry): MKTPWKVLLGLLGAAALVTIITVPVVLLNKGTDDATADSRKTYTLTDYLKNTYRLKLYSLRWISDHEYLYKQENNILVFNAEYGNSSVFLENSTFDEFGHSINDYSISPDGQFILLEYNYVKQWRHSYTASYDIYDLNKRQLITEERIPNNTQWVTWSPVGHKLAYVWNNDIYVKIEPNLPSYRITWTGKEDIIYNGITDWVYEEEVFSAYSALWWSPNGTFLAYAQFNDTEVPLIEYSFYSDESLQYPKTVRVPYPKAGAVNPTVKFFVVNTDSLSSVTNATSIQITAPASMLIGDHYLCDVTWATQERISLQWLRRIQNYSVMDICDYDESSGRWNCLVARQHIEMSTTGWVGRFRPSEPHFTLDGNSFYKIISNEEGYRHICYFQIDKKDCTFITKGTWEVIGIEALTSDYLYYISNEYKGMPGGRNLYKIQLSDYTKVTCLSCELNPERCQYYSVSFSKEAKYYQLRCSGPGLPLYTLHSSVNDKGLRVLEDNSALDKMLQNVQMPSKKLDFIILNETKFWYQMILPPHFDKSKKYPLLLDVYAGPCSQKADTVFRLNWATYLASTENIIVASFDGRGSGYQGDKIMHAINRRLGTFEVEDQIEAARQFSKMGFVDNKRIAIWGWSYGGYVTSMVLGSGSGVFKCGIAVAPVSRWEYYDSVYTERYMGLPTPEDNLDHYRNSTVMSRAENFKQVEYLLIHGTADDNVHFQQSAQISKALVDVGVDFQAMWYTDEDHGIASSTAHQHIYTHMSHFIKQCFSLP

T2 sequence (Q86TI2 whole entry): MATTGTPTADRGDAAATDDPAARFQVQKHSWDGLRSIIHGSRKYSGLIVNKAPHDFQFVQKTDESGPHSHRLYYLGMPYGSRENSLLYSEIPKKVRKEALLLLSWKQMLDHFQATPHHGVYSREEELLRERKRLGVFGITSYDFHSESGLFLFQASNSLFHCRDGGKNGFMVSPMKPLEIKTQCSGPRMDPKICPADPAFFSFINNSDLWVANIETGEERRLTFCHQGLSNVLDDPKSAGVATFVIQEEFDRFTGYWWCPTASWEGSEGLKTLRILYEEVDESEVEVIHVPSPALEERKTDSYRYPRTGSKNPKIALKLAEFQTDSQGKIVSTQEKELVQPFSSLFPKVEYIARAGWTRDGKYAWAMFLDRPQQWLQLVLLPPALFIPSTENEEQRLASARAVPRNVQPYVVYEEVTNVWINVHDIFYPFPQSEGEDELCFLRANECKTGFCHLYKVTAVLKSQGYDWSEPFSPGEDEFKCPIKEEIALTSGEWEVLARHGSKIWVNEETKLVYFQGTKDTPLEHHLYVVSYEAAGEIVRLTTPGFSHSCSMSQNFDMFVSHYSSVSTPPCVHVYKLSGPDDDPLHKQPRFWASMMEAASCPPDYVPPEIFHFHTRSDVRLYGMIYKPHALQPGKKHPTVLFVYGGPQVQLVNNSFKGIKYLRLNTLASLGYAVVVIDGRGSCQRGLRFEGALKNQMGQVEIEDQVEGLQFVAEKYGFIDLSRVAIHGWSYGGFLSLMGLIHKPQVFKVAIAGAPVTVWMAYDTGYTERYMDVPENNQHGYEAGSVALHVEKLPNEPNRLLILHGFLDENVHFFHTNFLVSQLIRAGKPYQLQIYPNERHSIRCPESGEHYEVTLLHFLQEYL

Structure (SMILES) | IC50 [1] | IC50 [2] | inhibition at 1 µM [3] | IC50 ([3]; Table 2, Z-Gly-Pro-AMC) | IC50 ([3]; Table 3) | IC50 [4]
N#C[C@@H]1CC(F)(F)CN1C(=O)CNC(=O)c1ccncc1C1=CCCCC1 [Compound 43, N-(2-((S)-2-cyano-4,4-difluoropyrrolidin-1-yl)-2-oxoethyl)-3-(cyclohex-1-en-1-yl)isonicotinamide] | > 10 µM | 1 to 10 µM | > 50% | < 1 µM | < 1 µM | > 10 µM
N#C[C@@H]1CC(F)(F)CN1C(=O)CNC(=O)c1ccncc1Oc1ccccc1 [Compound 97, (S)—N-(2-(2-cyano-4,4-difluoropyrrolidin-1-yl)-2-oxoethyl)-3-phenoxyisonicotinamide] | > 10 µM | > 10 µM | > 50% | < 1 µM | < 1 µM | > 10 µM
CCOc1cnccc1C(=O)NCC(=O)N1CC(F)(F)C[C@H]1C#N [Compound 113, (S)—N-(2-(2-cyano-4,4-difluoropyrrolidin-1-yl)-2-oxoethyl)-3-ethoxyisonicotinamide] | > 10 µM | > 10 µM | > 50% | < 1 µM | < 1 µM | > 10 µM
Cn1ccc2c(-c3cnccc3C(=O)NCC(=O)N3CC(F)(F)C[C@H]3C#N)cccc21 [Compound 66, (S)—N-(2-(2-cyano-4,4-difluoropyrrolidin-1-yl)-2-oxoethyl)-3-(1-methyl-1H-indol-4-yl)isonicotinamide] | > 10 µM | > 10 µM | > 50% | < 1 µM | < 1 µM | > 10 µM
Cc1ccc(-c2cnccc2C(=O)NCC(=O)N2CC(F)(F)C[C@H]2C#N)o1 [Compound 106, (S)—N-(2-(2-cyano-4,4-difluoropyrrolidin-1-yl)-2-oxoethyl)-3-(5-methylfuran-2-yl)isonicotinamide] | > 10 µM | > 10 µM | > 50% | < 1 µM | < 1 µM | > 10 µM
N#C[C@@H]1CC(F)(F)CN1C(=O)CNC(=O)c1ccncc1Nc1ccnc2ccccc12 [Compound 119, (S)—N-(2-(2-cyano-4,4-difluoropyrrolidin-1-yl)-2-oxoethyl)-3-(quinolin-4-ylamino)isonicotinamide] | > 10 µM | > 10 µM | > 50% | < 1 µM | < 1 µM | > 10 µM

The remaining lines, values ahead:

IC50 [1] | IC50 [2] | inhibition at 1 µM [3] | IC50 ([3]; Table 2, Z-Gly-Pro-AMC) | IC50 ([3]; Table 3) | IC50 [4] | Structure (SMILES)
> 10 µM | > 10 µM | > 50% | < 1 µM | < 1 µM | 1 to 10 µM | N#C[C@@H]1CC(F)(F)CN1C(=O)CNC(=O)c1c[nH]c(=O)cc1-c1ccccc1 [Compound 29, (S)—N-(2-(2-cyano-4,4-difluoropyrrolidin-1-yl)-2-oxoethyl)-6-oxo-4-phenyl-1,6-dihydropyridine-3-carboxamide]
> 10 µM | > 10 µM | > 50% | < 1 µM | < 1 µM | 1 to 10 µM | N#C[C@@H]1CC(F)(F)CN1C(=O)CNC(=O)c1c[nH]c(=O)cc1-c1ccnc2ccccc12 [Compound 116, (S)—N-(2-(2-cyano-4,4-difluoropyrrolidin-1-yl)-2-oxoethyl)-6-oxo-4-(quinolin-4-yl)-1,6-dihydropyridine-3-carboxamide]
> 10 µM | > 10 µM | > 50% | < 1 µM | < 1 µM | 1 to 10 µM | N#C[C@@H]1CC(F)(F)CN1C(=O)CNC(=O)c1ccncc1-c1ccnc2ccccc12 [Compound 51, (S)—N-(2-(2-cyano-4,4-difluoropyrrolidin-1-yl)-2-oxoethyl)-3-(quinolin-4-yl)isonicotinamide]
> 10 µM | > 10 µM | > 50% | < 1 µM | < 1 µM | > 10 µM | N#C[C@@H]1CC(F)(F)CN1C(=O)CNC(=O)c1ccncc1Nc1ccc(F)cc1 [Compound 114, (S)—N-(2-(2-cyano-4,4-difluoropyrrolidin-1-yl)-2-oxoethyl)-3-((4-fluorophenyl)amino)isonicotinamide 2,2,2-trifluoroacetate]

Reference: patent US11780821B2, “Inhibitors of fibroblast activation protein” (Praxis Biotech LLC, priority 2017, dated 2023)
